Series [1] has as its target T1, MAO-B (Homo sapiens, UniProt P27338).
T1 sequence (P27338 1-520): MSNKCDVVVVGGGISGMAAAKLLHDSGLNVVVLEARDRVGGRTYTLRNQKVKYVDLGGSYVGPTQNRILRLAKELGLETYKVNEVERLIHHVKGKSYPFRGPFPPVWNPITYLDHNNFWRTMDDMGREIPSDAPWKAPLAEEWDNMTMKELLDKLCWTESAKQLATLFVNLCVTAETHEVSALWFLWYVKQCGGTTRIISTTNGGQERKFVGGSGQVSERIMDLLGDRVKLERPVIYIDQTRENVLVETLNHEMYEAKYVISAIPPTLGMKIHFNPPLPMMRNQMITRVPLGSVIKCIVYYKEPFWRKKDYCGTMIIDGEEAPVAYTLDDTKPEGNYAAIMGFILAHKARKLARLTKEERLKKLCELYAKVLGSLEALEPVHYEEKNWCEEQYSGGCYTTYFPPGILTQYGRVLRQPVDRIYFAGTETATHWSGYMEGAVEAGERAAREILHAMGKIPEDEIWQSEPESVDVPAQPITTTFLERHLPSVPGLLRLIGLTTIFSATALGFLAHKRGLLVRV
The series is described as follows: MAO-B inhibition assay (kynuramine, fluorescence). It counts as biochemical.
Description: In preparing the microplates, 50 μL of MAO-B (2.5 U/mL) was combined with 100 μL of the test compounds at different concentrations. This mixture was incubated at 37 °C for 10 min. […] Next, 50 μL of kynuramine (0.2 mM) sourced from Macklin in Shanghai, China, was added to the mixture. The resulting mixture was incubated at 37 °C for an additional 30 min. The reaction was halted by adding 80 μL of 2 N NaOH. Ultimately, the enzyme activity was measured using a microplate reader, with the excitation and emission wavelengths set at 310 nm and 400 nm, respectively.

The target of series [2] is T1, MAO-B. As to the kind of experiment: Kinetic studies of MAO-B inhibition (Lineweaver–Burk plots). It counts as biochemical. On the procedure:
The kinetic study of MAO-B inhibition was the Lineweaver–Burk plot, which was performed using the Lineweaver–Burk curve method. […] Kinetic characterization of their MAO-B inhibition was recorded 20 min after initiation. Constants Kis and Ki were calculated using the Lineweaver–Burk plots.

The nature of series [3]: ABTS+ radical scavenging assay. The conditions noted are these: for IC50: read-out: ABTS+ IC50 (μM) ± SD. The protocol:
Various concentrations of the compounds (60 μL each) were then combined with 150 μL of the diluted ABTS^+ solution. The reaction was maintained in the dark at 30 °C for 6 min. Afterwards, the absorbance was determined at 734 nm with a microplate reader. The calculation of ABTS radical scavenging activity followed the same method as for DPPH radical scavenging activity. IC50 values were determined using GraphPad Prism 7.0, and all tests were conducted in triplicate.

Another series addresses human MAO-B. Also on record: method as in PMID 26796202. The conditions noted are these: selective and reversible inhibition; cited from earlier work.
The target in the next series is murine MAO-B. The arrangement: method as in PMID 26796202. The following applies: cited from earlier work.
The test system of series [4] is dopamine levels and striatal DOPAC. Also on record: method as in PMID 26796202. The conditions noted are these: intraperitoneal, 80 mg/kg; cited from earlier work.
Another series deals with MAO-B over MAO-A. The conditions noted are these: cited from earlier work.
The test system of series [5] is 6-OHDA-induced PC12 cells. As to the kind of experiment: Neuroprotective effect in 6-OHDA-induced PC12 cells (CCK-8 cell viability). It counts as cell-based. On the procedure: Two-dimensional (2D) cell culture models were used for performing cell viability assays. Approximately 10,000 PC12 cells (Fenghui, Changsha, China) were seeded into each well of a 96-well plate. The cells underwent pre-treatment with the test compounds for 2 h at 37 °C. […] The plate was incubated at 37 °C for 1 h after adding 10 μL of CCK-8 solution (ProteinTech, Chicago, USA) to each well. Then, each well's optical density (OD) was measured at 450 nm using a multimode microplate reader (Waltham, MA, USA).

A further series relates to PC12 cell. The series is described as follows: Cytotoxicity experiment on PC12 cells. The conditions noted are these: 0.5–100 μM. It counts as cell-based.
Series [6] can be described thus: DPPH radical scavenging assay. The following applies: for IC50: read-out: DPPH IC50 (μM) ± SD. The protocol:
The antioxidative capacity of the obtained compounds was carried out through DPPH radical scavenging assays and ABTS assay (Macklin, Shanghai, China) with some modifications, and Vitamin C was used as the positive control. In the DPPH assay, 60 μL of the isolates at varying concentrations were mixed with 100 μL of 100 μM DPPH solution in ethanol in a 96-well microplate. The mixture was shaken for 10 s and then allowed to sit in darkness at 30 °C for 5 min. Subsequently, the absorbance was determined using a microplate reader at a wavelength of 517 nm. The radical-scavenging activity of the compounds was assessed using the formula RSA (%) = [(AB-AA)/AB] × 100%, where AA was the absorbance of the sample and AB was the absorbance of the blank sample. The IC50 value was calculated with GraphPad Prism 7.0, and all experiments were conducted in triplicate.
A general note: DPPH is a stable violet radical that fades when it is reduced.

The mark [7] stands for this setting: MAO-B, dose–response, read-out: IC50 (μM) ± SD.
Where [8] appears, read: MAO-B, 50 μM, read-out: Inhibition rate ± SD (%) (50 μM).

Results on 21 molecules are retold here after article PMC12484522, “Neuroprotective effects of chemical constituents from Nicotiana tabacum L. in Parkinson’s disease” (Natural Products and Bioprospecting, 2025).

“Also recorded” adds a separate entry of the source. Like-named read-outs stand apart in the source and are kept apart here. Bounds are passed on as bounds.

For orientation: IC50 means the concentration needed to halve the response being measured. For `CCC1=C(/C=C/C(O)CCCCCCCC(=O)OC)CCC1=O` (stereo not drawn) [10/11, phytoprostanes B1 type II], at MAO-B [1] (setting [7]), the IC50 was 37.7 ± 1.57 µM. Besides, the “Inhibition mechanism against MAO-B” value on MAO-B [2] is reported as “competitive MAO-B inhibitors; also recorded: competitive inhibition mechanism”.

One may read the inhibition as the percentage by which the read-out fell short of the control. For `CC(=O)/C=C/C/C(C)=C/CC/C(C)=C/CC/C(C)=C/CC/C(C)=C/CO` [Compound 1, Nicotiazanorpenoid A], at MAO-B [1] (setting [8]), the inhibition at 50 µM was determined as 15.4 ± 8.16%.

Turning to `C=C(C)/C=C/[C@@H](CC/C(C)=C/CC/C(C)=C/C=O)C(C)C` [Compound 2, 2,6,11,13-tetradecatetraenal-3,7,13-trimethyl-10-(1-methylethyl)], the inhibition at 50 µM on MAO-B [1] (setting [8]) was 11 ± 3.99%.

As usually defined, the Ki is the equilibrium dissociation constant of an inhibitor or competing ligand from its target. In the case of `COc1cc2ccc(=O)oc2cc1O` [Compound 3, scopoletin], the concentration for half-maximal inhibition (IC50) at MAO-B [1] was found to be 40.2 ± 1.21 µM; in [3] it was 27.7 ± 1.2 µM. Further, the “Inhibition mechanism against MAO-B” value at MAO-B [2] was “non-competitive inhibitor”. The Ki is 78.8 µM at MAO-B [2] (MAO-B, read-out: Ki value (equilibrium constant for inhibitor-enzyme binding)); 20.7 µM on human MAO-B; 22 µM at murine MAO-B. Moreover, the “ABTS+ RSA ± SD (50 μM)” value in [3] worked out at 68.91 ± 1.75%. The Dopamine levels entry in [4] was “significantly elevated”. In addition, the “Striatal metabolite 3,4-dihydroxyphenylacetic acid (DOPAC)” value in series [4] is listed as “reducing”. Also, in the series with MAO-B over MAO-A, the “Selectivity for MAO-B over MAO-A” value is recorded as “approximately 3.5 fold”.

In the case of `CC1=CC(=O)CC(C)(C)[C@H]1CC[C@@H](C)O` [Compound 4, blumenol C], the inhibition at 50 µM at MAO-B [1] (setting [8]) is 16.5 ± 7.04%.

For `CC1=CC(=O)CC(C)(C)[C@H]1/C=C/[C@@H](C)O` [Compound 5, (6R,9S)-3-oxo-α-ionol], the inhibition at 50 µM at MAO-B [1] (setting [8]) was found to be 24 ± 8.05%.

For `OCCc1ccccc1` [Compound 7, 2-phenylethanol], on MAO-B [1] (setting [8]), the inhibition at 50 µM was determined as 14.4 ± 4.04%.

Consider `CC(C)c1cc2c(cc1O)[C@@]1(C)CCCC(C)(C)[C@@H]1CC2` [Compound 8, ferruginol], for which the inhibition at 50 µM at MAO-B [1] (read-out: Inhibition rate ± SD (%) (50 μM), MAO-B, 50 μM) was 17.5 ± 1.5%.

On to `CC(C)c1cc2c(cc1O)[C@@]1(C)CCCC(C)(C)[C@@H]1C=C2` [Compound 9, 6,7-dehydroferruginol], for which, on MAO-B [1] (setting [8]), the inhibition at 50 µM is 7.04 ± 4.08%.

Broadly, the viability is the share of living cells, or the viability signal relative to a control. On to `CC/C=C\C/C=C\C/C=C\CCCCCC(=O)OC` [Compound 14, Methyl (7Z,10Z,13Z)-7,10,13-hexadecatrienoate], for which, at MAO-B [1] (setting [8]), the inhibition at 50 µM is above 30%. The IC50 at MAO-B [1] (setting [7]) stood at 201 ± 7.03 µM. Moreover, the “Neuroprotective effect at various concentrations” value in [5] (0.5–100 μM) is given as “enhanced cell viability across all tested concentrations, except 50 μM”. Besides, the viability at 5 µM in series [5] (Rattus norvegicus, PC-12, 5 μM (best concentration)) is 93.9%. In series [5] (Rattus norvegicus, PC-12, 100 μM, model group 63.58%), this molecule had a viability at 100 µM of 87.1%. In addition, in the series on PC12 cell, the Cytotoxicity result is on record as “extremely low cytotoxicity”.

On to `CCCCC/C=C\C/C=C\CCCCCCCC(=O)O` [Compound 15, linolic acid], for which the inhibition at 50 µM at MAO-B [1] (setting [8]) came to 18 ± 4.32%.

As for `COCc1ccc(C=O)[nH]1` [Compound 16, 5-(methoxymethyl)-1H-pyrrole-2-carboxaldehyde], the inhibition at 50 µM on MAO-B [1] (setting [8]) was 22.2 ± 5.24%.

As for `COC(=O)c1ccc(O)cn1` [Compound 17, methyl 5-hydroxypicolinate], on MAO-B [1] (setting [8]), the inhibition at 50 µM was determined as 17.1 ± 5.06%.

With `O=C(O)c1ccc(O)cc1` [Compound 18, paraben-acid], at MAO-B [1] (setting [8]), the inhibition at 50 µM amounted to 8.29 ± 3.9%.

As for `COc1cc(C(CO)OC)ccc1O` (stereo not drawn) [Compound 19, 4-hydroxy-β,3-dimethoxybenzeneethanol], on MAO-B [1] (setting [8]), the inhibition at 50 µM turned out to be 3.71 ± 4.89%. Further, in series [3], the “ABTS+ RSA ± SD (50 μM)” value is 59.17 ± 3.59% and the IC50 was found to be 84.06 ± 0.76 µM.

As to `COc1cc(CCO)ccc1O` [Compound 20, homovanillic alcohol], at MAO-B [1] (setting [8]), the inhibition at 50 µM was determined as 2.98 ± 2.8%. Also, in series [3], the “ABTS+ RSA ± SD (50 μM)” value is listed as 57.38 ± 1.01% and the IC50 was 60.5 ± 1.18 µM.

Regarding `COc1cc(C(=O)CCO)ccc1O` [Compound 21, β-hydroxypropiovanillone], the inhibition at 50 µM on MAO-B [1] (read-out: Inhibition rate ± SD (%) (50 μM)) came out at 11.2 ± 1.81%. Besides, in series [3], the “ABTS+ RSA ± SD (50 μM)” value was 36.36 ± 1.01% and the concentration for half-maximal inhibition (IC50) worked out at 348 ± 17.5 µM.

Regarding `O=C1C=CCCN1` [Compound 22, 5,6-dihydropyridin-2(1H)-one], the inhibition at 50 µM at MAO-B [1] (setting [8]) amounted to 1.05 ± 3.46%.

For the molecule `C#CCN[C@@H]1CCc2ccccc21` [Rasagiline, rasagiline, reference compound], the Cell viability in series [5] (positive control, abstract: at equivalent concentrations) came to 88.36%.

Turning to `O=C1O[C@H]([C@@H](O)CO)C(O)=C1O` [Vitamin C, ascorbic acid, reference compound], in series [6], the “DPPH RSA ± SD (50 μM)” value is listed as 99.97 ± 0.05% and the IC50 is 9.12 ± 0.25 µM. Further, in [3], the “ABTS+ RSA ± SD (50 μM)” value is given as 99.80 ± 0.09% and the IC50 was found to be 14.46 ± 0.03 µM.

In the case of isoferulic acid [Compound 6], in series [6], the “DPPH RSA ± SD (50 μM)” value is 36.00 ± 1.01% and the IC50 worked out at 152 ± 1.75 µM. In series [3], the “ABTS+ RSA ± SD (50 μM)” value is on record as 92.90 ± 0.45% and the IC50 was determined as 18.1 ± 2.49 µM.
